The target in the first test is T1, RAC-alpha serine/threonine-protein kinase [139-480,S378A,S381A,T450D,S473D] (Homo sapiens, UniProt P31749, S378A/S381A/S473D/T450D).
T1 construct: 139-480
T1 sequence (P31749 139-480 S378A/S381A/T450D/S473D): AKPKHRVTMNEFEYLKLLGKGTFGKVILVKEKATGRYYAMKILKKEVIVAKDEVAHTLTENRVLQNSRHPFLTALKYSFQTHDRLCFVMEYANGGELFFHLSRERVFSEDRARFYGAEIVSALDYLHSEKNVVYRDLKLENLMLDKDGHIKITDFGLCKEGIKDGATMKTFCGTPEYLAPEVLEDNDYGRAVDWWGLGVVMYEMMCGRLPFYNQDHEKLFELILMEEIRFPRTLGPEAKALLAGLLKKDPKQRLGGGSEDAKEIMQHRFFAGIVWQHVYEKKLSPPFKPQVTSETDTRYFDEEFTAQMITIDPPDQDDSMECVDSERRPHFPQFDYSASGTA
Put plainly: Akt Kinase Assay.
Settings: not given
The protocol:
The kinase assay uses His-Akt1 and a biotinylated peptide as substrate. The biotinylated peptides were immobilized on streptavidin-coated FLASH plates. After reaction, the 33P-phosphopeptide captured on the FLASH plates was measured with a TopCount Packard Instruments […] (Packard Instruments, Boston, MA).
On to `Cc1n[nH]c2cnc(-c3cncc(OC[C@@H](N)Cc4cccc(C(F)(F)F)c4)c3)cc12` [3-[(2S)-2-amino-3-[3-(trifluoromethyl)phenyl]propoxy]-5-{3-methyl-1H-pyrazolo[3,4-c]pyridin-5-yl}pyridine], for which the IC50 – broadly, the concentration at which inhibition is half-maximal – is 0.6 nM. Still for that read-out and setting: the value for `Cc1n[nH]c2ccc(-c3cncc(OC[C@@H](N)Cc4cccc(OCCN5CCOCC5)c4)c3)cc12` [4-(2-{3-[(2S)-2-amino-3-{[5-(3-methyl-1H-indazol-5-yl)pyridin-3-yl]oxy}propyl]phenoxy}ethyl)morpholine] was 751 nM; that for `Cc1n[nH]c2ccc(-c3cncc(OC[C@@H](N)Cc4ccc5c(c4)OC(F)(F)C(F)(F)O5)c3)cc12` [5-{5-[(2S)-2-amino-3-(2,2,3,3-tetrafluoro-2,3-dihydro-1,4-benzodioxin-6-yl)propoxy]pyridin-3-yl}-3-methyl-1H-indazole] was 13 nM. Still for that read-out and setting: the value for `Cc1n[nH]c2ccc(-c3cncc(OC[C@@H](N)Cc4cccc5c4OC(F)(F)O5)c3)cc12` [5-{5-[(2S)-2-amino-3-(2,2-difluoro-2H-1,3-benzodioxol-4-yl)propoxy]pyridin-3-yl}-3-methyl-1H-indazole] was 14 nM; that for `Cc1n[nH]c2ccc(-c3cncc(OC[C@@H](N)Cc4cccc(Cl)c4Cl)c3)cc12` [5-{5-[(2S)-2-amino-3-(2,3-dichlorophenyl)propoxy]pyridin-3-yl}-3-methyl-1H-indazole] was 5.6 nM. In turn, `Cc1n[nH]c2ccc(-c3cncc(OC[C@@H](N)Cc4ccccc4Cl)c3)cc12` [5-{5-[(2S)-2-amino-3-(2-chlorophenyl)propoxy]pyridin-3-yl}-3-methyl-1H-indazole] had an IC50 of 29 nM. The same measure, in the same setting: under `Cc1n[nH]c2ccc(-c3cncc(OC[C@@H](N)Cc4ccc5c(c4)OCO5)c3)cc12` [5-{5-[(2S)-2-amino-3-(2H-1,3-benzodioxol-5-yl)propoxy]pyridin-3-yl}-3-methyl-1H-indazole] stands 42 nM; under `Cc1ccc(C[C@H](N)COc2cncc(-c3ccc4[nH]nc(C)c4c3)c2)cc1F` [5-{5-[(2S)-2-amino-3-(3-fluoro-4-methylphenyl)propoxy]pyridin-3-yl}-3-methyl-1H-indazole], 2.4 nM; under `Cc1n[nH]c2ccc(-c3cncc(OC[C@@H](N)Cc4cccc(I)c4)c3)cc12` [5-{5-[(2S)-2-amino-3-(3-iodophenyl)propoxy]pyridin-3-yl}-3-methyl-1H-indazole], 0.9 nM. Still for that read-out and setting: the value for `Cc1n[nH]c2ccc(-c3cncc(OC[C@@H](N)Cc4cccc(-c5ccccc5)c4)c3)cc12` [5-{5-[(2S)-2-amino-3-(3-phenylphenyl)propoxy]pyridin-3-yl}-3-methyl-1H-indazole] was 126 nM.

The same test, now with this note: pH 7.5; 22 °C.
Regarding `N[C@H](COc1cncc(-c2ccc3c(c2)CC(=O)N3)c1)Cc1ccccc1` [5-(5-{[(2S)-2-amino-3-phenylpropyl]oxy}pyridin-3-yl)-1,3-dihydro-2H-indol-2-one], the IC50 was found to be 2650 nM.

Turning to `Cc1n[nH]c2ccc(-c3cncc(OC[C@@H](N)Cc4ccc(F)c(F)c4F)c3)cc12` [5-{5-[(2S)-2-amino-3-(2,3,4-trifluorophenyl)propoxy]pyridin-3-yl}-3-methyl-1H-indazole], the IC50 was 12 nM. On the same count and under the same terms, under `Cc1n[nH]c2ccc(-c3cncc(OC[C@@H](N)Cc4cccc(F)c4F)c3)cc12` [5-{5-[(2S)-2-amino-3-(2,3-difluorophenyl)propoxy]pyridin-3-yl}-3-methyl-1H-indazole] stands 8.5 nM. Still for that read-out and setting: under `Cc1n[nH]c2ccc(-c3cncc(OC[C@@H](N)Cc4c(F)cccc4F)c3)cc12` [5-{5-[(2S)-2-amino-3-(2,6-difluorophenyl)propoxy]pyridin-3-yl}-3-methyl-1H-indazole] stands 65.5 nM; under `Cc1n[nH]c2ccc(-c3cncc(OC[C@@H](N)Cc4cccc(F)c4)c3)cc12` [5-{5-[(2S)-2-amino-3-(3-fluorophenyl)propoxy]pyridin-3-yl}-3-methyl-1H-indazole], 8.4 nM.

These data come from BindingDB's records for doi:10.1021/jm0701019 (Abbott Laboratories, 2007).
